Assay results taken from ChEMBL document CHEMBL1201862, “PubChem BioAssay data set” (2004).
Calls of active or inactive are those of the source.

Columns and labels:
cells [1] = assay: cells
[2] = Late stage counterscreen for inhibitors of Trypanosoma brucei methionyl tRNA synthetase (MetRS): Luminescence-based cell-based high throughput dose response assay to identify compounds that are cytotoxic to Jurkat human T lymphocyte cells.; format: functional
[3] = IC50 of Artemis nuclease activity blockers – biochemical, fluorescence intensity, dose response (AID 720701); format: functional;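 further: Artemis endonuclease enzyme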
Bcl-2-like protein 10 = Bcl-2-like protein 10 (Homo sapiens, UniProt Q9HD36); assay: Bcl-B/TR3 peptide binding disruption – biochemical, fluorescence polarization, FITC-TR3 peptide, selectivity assay for Bfl-1 inhibitor project, primary screen (AID 748);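 further: fluorescence polarization from a fluorescein-labelled TR3 peptide binding purified Bcl-B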
Sequence of Bcl-2-like protein 10 (Q9HD36 whole entry): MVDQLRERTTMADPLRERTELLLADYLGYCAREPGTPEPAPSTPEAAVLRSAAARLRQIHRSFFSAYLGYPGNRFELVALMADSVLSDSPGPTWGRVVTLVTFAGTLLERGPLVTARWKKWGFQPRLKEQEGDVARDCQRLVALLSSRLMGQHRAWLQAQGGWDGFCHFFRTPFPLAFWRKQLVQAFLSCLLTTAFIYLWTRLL

BJ [4] = assay: cells; format: functional, cell-based; settings: Homo sapiens
BJ [5] = assay: BJ-TERT fibroblast viability loss – cell-based, RAS-independent, luminescence, dose response (AID 1933); format: functional; settings: Homo sapiens
[6] = toxicity toward HEK293 cells – cell-based, dry powder samples, cytotoxicity control, dose response (AID 720567); format: functional
[7] = DRD fibroblast viability loss – cell-based, non-viral oncogenic, luminescence, dose response (AID 1934); format: functional; settings: Homo sapiens
[8] = toxicity toward HepG2 hepatoma cells – cell-based, dry powder samples, cytotoxicity control, dose response (AID 720568); format: functional
BJ [9] = assay: BJ-TERT-LT-ST fibroblast viability loss – cell-based, RAS-independent, luminescence, dose response (AID 1935); format: functional; settings: Homo sapiens;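 further: BJ fibroblasts immortalized with TERT plus LT and ST oncogenes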
[10] = biological target: Protein disulfide-isomerase A6 (Homo sapiens, UniProt Q15084); assay: reduced insulin turbidity driven by ERp5 (PDIA6) – biochemical, absorbance 650 nm, cherry-picked samples, dose response (AID 720566)
Sequence of Protein disulfide-isomerase A6 (Q15084 whole entry): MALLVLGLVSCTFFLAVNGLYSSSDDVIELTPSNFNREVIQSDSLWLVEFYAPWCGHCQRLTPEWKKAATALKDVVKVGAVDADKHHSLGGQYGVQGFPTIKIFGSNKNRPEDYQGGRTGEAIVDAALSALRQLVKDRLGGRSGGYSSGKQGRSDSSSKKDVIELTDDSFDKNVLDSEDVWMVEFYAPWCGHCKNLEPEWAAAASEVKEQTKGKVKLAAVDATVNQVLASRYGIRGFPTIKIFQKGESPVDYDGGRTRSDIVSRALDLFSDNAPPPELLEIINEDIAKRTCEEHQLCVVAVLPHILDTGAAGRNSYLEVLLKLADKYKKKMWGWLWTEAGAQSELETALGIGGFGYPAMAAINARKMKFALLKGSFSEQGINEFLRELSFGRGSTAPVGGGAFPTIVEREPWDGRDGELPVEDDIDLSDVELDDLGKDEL

[11] = Trypanosoma cruzi growth suppression in host cells – NIH3T3 host cells, beta-gal luminescence, confirmation (AID 2044); format: functional, cell-based;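 further: intracellular parasites grown in NIH/3T3 mouse fibroblasts as host cells; luminescent beta-galactosidase reporter signal from transgenic T. cruzi replicating inside host cells; inhibitors lower the luminescence signal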
[12] = viability loss in HepG2 liver cells – cell-based, ATP luminescence, cherry-pick, set 6, cytotoxicity control, dose response (AID 1053125); format: functional
[13] = NIH3T3 cell viability loss – ATP luminescence, mouse fibroblasts, counter-screen, dose response (AID 2010); format: functional, cell-based;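 further: cells exposed to compound for about 90 hours before reading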
cells [14] = settings: HEK293
[15] = biological target: T1, Rac GTPase-activating protein 1 (Homo sapiens, UniProt Q9H0H5); assay: blockers of MgcRacGAP-driven Rac1 GTP hydrolysis – biochemical, ADP Hunter fluorescence, primary and confirmatory, confirmation (AID 624330); format: functional
T1 sequence (Q9H0H5 whole entry): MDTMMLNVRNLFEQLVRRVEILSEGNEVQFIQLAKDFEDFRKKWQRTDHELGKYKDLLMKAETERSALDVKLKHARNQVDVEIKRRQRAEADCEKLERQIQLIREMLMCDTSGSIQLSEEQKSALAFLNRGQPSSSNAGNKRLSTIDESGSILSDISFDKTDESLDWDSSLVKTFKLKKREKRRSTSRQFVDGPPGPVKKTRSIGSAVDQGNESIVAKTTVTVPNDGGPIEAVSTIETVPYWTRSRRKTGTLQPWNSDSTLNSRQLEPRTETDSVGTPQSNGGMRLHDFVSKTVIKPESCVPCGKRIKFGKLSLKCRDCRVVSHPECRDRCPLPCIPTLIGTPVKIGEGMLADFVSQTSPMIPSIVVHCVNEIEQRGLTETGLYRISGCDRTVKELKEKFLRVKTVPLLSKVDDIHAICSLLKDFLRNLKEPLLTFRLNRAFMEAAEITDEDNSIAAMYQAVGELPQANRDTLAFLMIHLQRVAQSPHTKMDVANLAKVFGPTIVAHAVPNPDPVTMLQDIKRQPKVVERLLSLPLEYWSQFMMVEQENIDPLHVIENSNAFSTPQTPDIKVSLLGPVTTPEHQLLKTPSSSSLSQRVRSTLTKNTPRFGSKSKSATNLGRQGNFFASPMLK

[16] = Fluorescence-based cell-based high throughput dose response assay for inhibitors of the interaction of nucleotide-binding oligomerization domain containing 2 (NOD2) and the receptor-interacting serine-threonine kinase 2 (RIPK2).; format: functional; settings: Homo sapiens
[17] = biological target: T2, Sentrin-specific protease 8 (Homo sapiens, UniProt Q96LD8); format: functional
T2 sequence (Q96LD8 whole entry): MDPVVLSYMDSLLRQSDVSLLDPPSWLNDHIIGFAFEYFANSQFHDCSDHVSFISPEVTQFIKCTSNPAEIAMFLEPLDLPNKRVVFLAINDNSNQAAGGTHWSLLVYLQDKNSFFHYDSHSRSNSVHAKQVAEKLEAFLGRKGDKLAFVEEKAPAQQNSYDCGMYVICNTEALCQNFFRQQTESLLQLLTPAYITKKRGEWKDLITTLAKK

[18] = biological target: T2, Sentrin-specific protease 8; format: functional; remark: listed apart in the source
Genome polyprotein = Genome polyprotein (dengue virus type 2, UniProt P29990); assay: flavivirus cap methylation enzyme inhibition – biochemical, confirmation dose response, primary screen (AID 588689); format: functional
[19] = biological target: Heat shock protein HSP 90-alpha (Homo sapiens, UniProt P07900); format: functional, organism-based
Beta-galactosidase = Beta-galactosidase (Escherichia coli, UniProt Q8VNN2); assay: detection-enzyme interference by beta-gal modulators – biochemical, E. coli enzyme, set 3, artefact control for CCR6 antagonist project, dose response (AID 504712); format: functional
Sequence of Beta-galactosidase (Q8VNN2 whole entry): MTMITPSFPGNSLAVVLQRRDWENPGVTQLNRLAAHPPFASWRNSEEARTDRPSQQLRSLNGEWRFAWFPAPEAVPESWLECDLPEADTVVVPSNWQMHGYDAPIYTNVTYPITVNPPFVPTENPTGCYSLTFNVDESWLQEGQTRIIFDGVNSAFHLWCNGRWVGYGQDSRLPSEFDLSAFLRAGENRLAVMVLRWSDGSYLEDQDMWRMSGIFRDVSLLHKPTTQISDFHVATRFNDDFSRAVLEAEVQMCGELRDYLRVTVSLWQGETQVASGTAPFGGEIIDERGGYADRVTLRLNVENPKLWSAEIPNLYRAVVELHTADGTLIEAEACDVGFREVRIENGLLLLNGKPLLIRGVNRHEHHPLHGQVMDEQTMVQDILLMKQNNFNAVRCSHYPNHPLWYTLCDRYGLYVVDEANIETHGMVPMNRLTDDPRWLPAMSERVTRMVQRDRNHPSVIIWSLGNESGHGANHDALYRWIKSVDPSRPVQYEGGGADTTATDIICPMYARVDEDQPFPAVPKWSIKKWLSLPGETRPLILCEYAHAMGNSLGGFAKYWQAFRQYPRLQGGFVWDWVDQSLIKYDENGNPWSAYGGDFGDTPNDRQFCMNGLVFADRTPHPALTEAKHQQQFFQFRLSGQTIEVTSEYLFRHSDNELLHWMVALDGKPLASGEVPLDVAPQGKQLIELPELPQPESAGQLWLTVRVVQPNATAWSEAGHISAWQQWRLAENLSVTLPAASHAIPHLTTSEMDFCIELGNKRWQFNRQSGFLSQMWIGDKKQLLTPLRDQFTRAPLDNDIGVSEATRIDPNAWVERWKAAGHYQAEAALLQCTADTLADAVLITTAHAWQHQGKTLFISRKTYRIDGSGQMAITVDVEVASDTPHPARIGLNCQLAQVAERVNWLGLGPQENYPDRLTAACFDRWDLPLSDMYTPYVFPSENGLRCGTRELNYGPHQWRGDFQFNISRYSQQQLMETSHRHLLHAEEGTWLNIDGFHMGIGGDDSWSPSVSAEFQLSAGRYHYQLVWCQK

[20] = biological target: T3, Histone-lysine N-methyltransferase NSD2 (Homo sapiens, UniProt O96028); format: biochemical
T3 sequence (O96028 whole entry): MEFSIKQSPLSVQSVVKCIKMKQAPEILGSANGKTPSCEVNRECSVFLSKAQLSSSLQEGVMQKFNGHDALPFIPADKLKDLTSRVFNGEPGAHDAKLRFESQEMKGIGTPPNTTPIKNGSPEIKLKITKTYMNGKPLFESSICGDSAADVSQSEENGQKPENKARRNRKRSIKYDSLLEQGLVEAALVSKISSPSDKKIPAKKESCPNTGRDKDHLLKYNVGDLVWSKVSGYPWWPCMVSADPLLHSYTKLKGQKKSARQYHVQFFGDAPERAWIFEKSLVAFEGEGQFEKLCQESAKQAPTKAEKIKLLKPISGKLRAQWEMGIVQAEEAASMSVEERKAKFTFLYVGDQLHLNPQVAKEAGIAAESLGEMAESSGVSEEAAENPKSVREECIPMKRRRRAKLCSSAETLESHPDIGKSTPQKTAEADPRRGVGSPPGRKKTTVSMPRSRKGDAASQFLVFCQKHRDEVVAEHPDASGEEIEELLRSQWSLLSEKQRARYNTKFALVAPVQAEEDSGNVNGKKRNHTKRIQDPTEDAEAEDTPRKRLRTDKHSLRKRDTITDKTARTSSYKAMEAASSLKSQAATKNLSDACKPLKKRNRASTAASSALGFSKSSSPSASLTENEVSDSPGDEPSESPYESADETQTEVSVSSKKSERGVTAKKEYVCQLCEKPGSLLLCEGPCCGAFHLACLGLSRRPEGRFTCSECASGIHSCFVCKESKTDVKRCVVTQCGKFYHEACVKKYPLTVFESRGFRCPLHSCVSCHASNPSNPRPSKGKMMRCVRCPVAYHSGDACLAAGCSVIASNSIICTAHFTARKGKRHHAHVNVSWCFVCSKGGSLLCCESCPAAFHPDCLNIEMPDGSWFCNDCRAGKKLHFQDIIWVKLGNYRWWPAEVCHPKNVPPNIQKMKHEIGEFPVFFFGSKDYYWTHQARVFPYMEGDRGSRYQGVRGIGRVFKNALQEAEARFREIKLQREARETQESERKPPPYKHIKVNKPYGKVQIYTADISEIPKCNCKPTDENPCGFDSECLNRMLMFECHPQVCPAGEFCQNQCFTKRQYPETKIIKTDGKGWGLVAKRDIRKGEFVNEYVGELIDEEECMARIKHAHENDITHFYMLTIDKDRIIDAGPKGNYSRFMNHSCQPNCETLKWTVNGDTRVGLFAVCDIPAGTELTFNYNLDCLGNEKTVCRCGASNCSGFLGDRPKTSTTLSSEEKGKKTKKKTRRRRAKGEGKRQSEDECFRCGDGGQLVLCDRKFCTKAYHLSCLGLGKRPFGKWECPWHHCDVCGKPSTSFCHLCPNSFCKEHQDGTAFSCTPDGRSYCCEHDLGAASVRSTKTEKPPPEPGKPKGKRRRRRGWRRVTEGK

Phospholipase A2 = Phospholipase A2 (Homo sapiens, UniProt P04054); format: functional;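 further: confirmatory dose-response counterscreen on phospholipase A2, testing hits that came from an ultra-high-throughput screen for ATG4B inhibitors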
Sequence of Phospholipase A2 (P04054 whole entry): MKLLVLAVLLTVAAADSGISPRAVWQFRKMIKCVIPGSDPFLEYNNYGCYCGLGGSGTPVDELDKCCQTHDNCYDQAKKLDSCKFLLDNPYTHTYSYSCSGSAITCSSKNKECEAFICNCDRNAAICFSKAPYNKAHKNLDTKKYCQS

Cysteine protease ATG4B = Cysteine protease ATG4B (Homo sapiens, UniProt Q9Y4P1); format: functional;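 further: Fluorescence-based dose-response confirmation assay measuring inhibition of ATG4B activity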
[21] = viability loss in HeLa cells – cytotoxicity control for MgcRacGAP inhibitor project, dose response (AID 624300); format: functional
Vero = assay: viability of Vero cells under compound – cytotoxicity control for flavivirus capping enzyme inhibitors (AID 588742); format: functional; settings: Chlorocebus sabaeus
[22] = biological target: 1-phosphatidylinositol 4,5-bisphosphate phosphodiesterase gamma-1 (Homo sapiens, UniProt P19174); assay: Counterscreen for inhibitors of phospholipase C isozymes (PLC-B3): Fluorescence-based biochemical high throughput dose response assay to identify inhibitors of phospholipase C isozymes (PLC-gamma1).
Sequence of 1-phosphatidylinositol 4,5-bisphosphate phosphodiesterase gamma-1 (P19174 whole entry): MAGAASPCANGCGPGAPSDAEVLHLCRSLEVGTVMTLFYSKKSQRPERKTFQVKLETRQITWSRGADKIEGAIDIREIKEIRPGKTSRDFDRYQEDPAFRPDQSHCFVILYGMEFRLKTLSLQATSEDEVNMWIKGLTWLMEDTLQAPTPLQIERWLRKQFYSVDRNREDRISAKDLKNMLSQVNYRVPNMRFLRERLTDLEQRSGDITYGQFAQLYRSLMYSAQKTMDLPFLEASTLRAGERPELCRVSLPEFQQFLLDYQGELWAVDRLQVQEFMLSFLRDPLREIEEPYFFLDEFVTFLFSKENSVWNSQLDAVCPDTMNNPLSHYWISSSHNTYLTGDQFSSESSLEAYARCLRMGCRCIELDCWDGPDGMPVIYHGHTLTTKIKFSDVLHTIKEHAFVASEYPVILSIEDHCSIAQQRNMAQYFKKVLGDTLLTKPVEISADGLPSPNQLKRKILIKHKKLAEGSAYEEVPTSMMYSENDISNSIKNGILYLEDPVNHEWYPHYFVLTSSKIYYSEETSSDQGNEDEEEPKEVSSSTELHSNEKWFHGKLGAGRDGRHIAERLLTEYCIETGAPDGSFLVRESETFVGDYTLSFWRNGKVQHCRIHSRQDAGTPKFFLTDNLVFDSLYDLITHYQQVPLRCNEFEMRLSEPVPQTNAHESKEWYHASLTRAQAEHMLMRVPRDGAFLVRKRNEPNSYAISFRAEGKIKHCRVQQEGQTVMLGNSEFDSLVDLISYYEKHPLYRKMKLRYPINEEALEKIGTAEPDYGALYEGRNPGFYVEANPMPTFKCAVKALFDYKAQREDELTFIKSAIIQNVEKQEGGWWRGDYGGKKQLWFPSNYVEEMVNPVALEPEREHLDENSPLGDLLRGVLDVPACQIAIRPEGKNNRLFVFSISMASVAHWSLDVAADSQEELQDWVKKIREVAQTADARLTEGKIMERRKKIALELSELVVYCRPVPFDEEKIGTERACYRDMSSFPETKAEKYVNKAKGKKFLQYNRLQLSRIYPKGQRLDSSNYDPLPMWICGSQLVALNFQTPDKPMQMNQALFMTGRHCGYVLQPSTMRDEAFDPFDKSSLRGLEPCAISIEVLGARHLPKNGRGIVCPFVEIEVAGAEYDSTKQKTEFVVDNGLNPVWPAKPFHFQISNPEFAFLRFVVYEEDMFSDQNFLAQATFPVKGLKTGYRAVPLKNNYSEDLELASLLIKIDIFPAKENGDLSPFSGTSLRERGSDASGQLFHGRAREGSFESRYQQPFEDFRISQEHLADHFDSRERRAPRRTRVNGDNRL

[23] = biological target: 1-phosphatidylinositol 4,5-bisphosphate phosphodiesterase beta-3 (Homo sapiens, UniProt Q01970); assay: Fluorescence-based biochemical high throughput dose response assay to identify inhibitors of phospholipase C isozymes (PLC-B3).
Sequence of 1-phosphatidylinositol 4,5-bisphosphate phosphodiesterase beta-3 (Q01970 whole entry): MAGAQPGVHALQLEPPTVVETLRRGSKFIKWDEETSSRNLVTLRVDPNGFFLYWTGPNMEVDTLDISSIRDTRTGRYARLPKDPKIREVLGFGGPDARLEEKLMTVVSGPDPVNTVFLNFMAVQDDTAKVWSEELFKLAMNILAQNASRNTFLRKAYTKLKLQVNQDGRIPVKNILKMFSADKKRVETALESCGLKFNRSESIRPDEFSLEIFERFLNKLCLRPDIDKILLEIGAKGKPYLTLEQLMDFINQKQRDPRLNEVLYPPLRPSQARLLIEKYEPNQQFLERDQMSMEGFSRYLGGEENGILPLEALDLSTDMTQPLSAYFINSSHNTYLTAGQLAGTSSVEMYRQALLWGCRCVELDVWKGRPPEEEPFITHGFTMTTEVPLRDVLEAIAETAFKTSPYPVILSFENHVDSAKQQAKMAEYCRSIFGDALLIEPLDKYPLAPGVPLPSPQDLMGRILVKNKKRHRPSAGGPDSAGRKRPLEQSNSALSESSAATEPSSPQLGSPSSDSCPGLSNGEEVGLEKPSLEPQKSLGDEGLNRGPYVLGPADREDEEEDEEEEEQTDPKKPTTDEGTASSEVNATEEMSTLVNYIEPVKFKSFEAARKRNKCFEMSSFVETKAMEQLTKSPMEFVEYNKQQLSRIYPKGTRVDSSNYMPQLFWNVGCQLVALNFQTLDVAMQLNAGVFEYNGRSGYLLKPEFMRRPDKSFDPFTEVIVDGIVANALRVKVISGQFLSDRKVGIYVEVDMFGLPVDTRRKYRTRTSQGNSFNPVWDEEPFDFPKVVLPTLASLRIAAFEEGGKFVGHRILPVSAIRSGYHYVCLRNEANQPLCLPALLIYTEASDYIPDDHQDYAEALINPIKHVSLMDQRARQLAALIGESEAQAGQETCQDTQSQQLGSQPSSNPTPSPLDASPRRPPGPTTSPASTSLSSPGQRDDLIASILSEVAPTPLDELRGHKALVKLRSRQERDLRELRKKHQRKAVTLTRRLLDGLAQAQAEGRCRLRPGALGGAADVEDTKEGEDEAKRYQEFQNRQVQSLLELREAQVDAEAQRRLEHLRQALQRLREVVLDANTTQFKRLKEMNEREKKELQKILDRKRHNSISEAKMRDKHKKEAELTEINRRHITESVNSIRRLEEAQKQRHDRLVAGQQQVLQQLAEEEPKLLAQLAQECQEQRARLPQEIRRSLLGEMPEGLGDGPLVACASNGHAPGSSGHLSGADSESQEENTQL

[24] = biological target: Tyrosyl-DNA phosphodiesterase 2 (Homo sapiens, UniProt O95551); assay: potency against TDP2 phosphodiesterase activity – biochemical, epi absorbance, IC50, dose response (AID 743297)
Kallikrein-7 = Kallikrein-7 (Homo sapiens, UniProt P49862); assay: Fluorescence Intensity-based biochemical primary high throughput dose response assay to identify activators of kallikrein-7 (K7) zymogen.
Sequence of Kallikrein-7 (P49862 whole entry): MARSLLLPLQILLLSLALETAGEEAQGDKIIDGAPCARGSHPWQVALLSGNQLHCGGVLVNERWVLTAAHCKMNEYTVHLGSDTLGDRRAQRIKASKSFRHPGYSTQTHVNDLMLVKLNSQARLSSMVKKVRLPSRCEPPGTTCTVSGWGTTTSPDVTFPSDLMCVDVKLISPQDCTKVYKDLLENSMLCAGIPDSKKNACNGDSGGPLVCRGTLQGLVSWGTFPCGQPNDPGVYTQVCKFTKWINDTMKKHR

[25] = viability of BHK-21 cells – cell-based, secondary screen, cytotoxicity control for flavivirus guanylyltransferase probe project (AID 624078); format: functional
[26] = inhibitors of non-replicating M. tuberculosis, dose response, luciferase, dry powder (AID 651619); format: functional; settings: Mycobacterium tuberculosis
[27] = inhibitors of non-replicating M. tuberculosis, dose response, luciferase, dry powder (AID 651620); format: functional; settings: Mycobacterium tuberculosis
[28] = A549 cell viability loss – cherry-picked samples, cytotoxicity control, dose response (AID 1053184); format: functional, cell-based
[29] = biological target: Kappa-type opioid receptor (Homo sapiens, UniProt P41145); assay: Late-stage fluorescence-based cell-based dose response assay for antagonists of kappa opioid receptor 1 (OPRK1).; format: functional
[30] = biological target: Sphingosine 1-phosphate receptor 1 (Homo sapiens, UniProt P21453); assay: Late-stage counterscreen for antagonists of kappa opioid receptor 1 (OPRK1): fluorescence-based cell-based dose response assay to identify antagonists of Sphingosine 1-Phosphate Receptor 1 (S1P1).; format: functional
[31] = biological target: Delta-type opioid receptor (Homo sapiens, UniProt P41143); assay: Late-stage results from the probe development effort to identify antagonists of OPRK1: fluorescence-based cell-based dose response OPRD1 counterscreen, Set 2.; format: functional
Mu-type opioid receptor = Mu-type opioid receptor (Homo sapiens, UniProt P35372); assay: Late-stage results from the probe development effort to identify antagonists of OPRK1: luminescence-based cell-based dose response OPRM1 counterscreen, Set 2.; format: functional
Sequence of Mu-type opioid receptor (P35372 whole entry): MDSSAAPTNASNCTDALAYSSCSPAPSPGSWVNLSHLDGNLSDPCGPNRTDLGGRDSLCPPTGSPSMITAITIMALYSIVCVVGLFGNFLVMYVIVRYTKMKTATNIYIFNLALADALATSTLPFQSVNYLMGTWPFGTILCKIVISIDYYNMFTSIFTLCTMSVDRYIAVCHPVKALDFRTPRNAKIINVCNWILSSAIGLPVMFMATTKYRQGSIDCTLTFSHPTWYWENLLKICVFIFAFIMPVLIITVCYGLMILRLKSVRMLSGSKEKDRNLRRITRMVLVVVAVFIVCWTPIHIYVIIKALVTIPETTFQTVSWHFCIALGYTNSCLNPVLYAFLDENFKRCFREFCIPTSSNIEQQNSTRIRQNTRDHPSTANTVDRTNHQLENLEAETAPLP

O=C(O)c1ccc(-c2ccc(/C=C3\NC(=O)N(Cc4ccc(Cl)cc4)C3=O)o2)cc1
AC50 (cells [1]): 1.78 µM (active)

O=C(CC=NOCc1ccc([N+](=O)[O-])cc1)Nc1ccc(Br)cc1
IC50 [2]: > 83.3 µM (inactive)

Cc1cc(OCC(=O)Nc2ccc(N3CCCC3)cc2)cc(C)c1Cl
IC50 [3]: > 20 µM (inactive)
IC50 (Bcl-2-like protein 10): > 100 µM (inactive)

COc1cc(C(=O)NCCOc2cc(C)cc(C)c2)cc(OC)c1OC
EC50 (BJ [4]): 5.25 µM (active)
EC50 (BJ [5]): 16.3 µM (active)
AC50 [6]: 16.9 µM (active)
EC50 [7]: 4.9 µM (active)
AC50 [8]: 24.7 µM (active)
EC50 (BJ [9]): 17.1 µM (inconclusive)

Cc1cc(OCCCCOc2ccc(S(N)(=O)=O)c(C)c2)ccc1S(N)(=O)=O
AC50 [10]: 45.5 µM (active)

N#Cc1c2ccc(O)cc2n2ccccc12
EC50 [11]: 680 nM (active)
AC50 [12]: > 52 µM (inactive)
EC50 [13]: > 60 µM (not active)
AC50 (cells [14]): > 52 µM (inactive)

O=C1C(=C(I)I)c2ccccc2-c2ccccc21
IC50 [15]: 19.8 µM (active)
IC50 [16]: 1.2 µM (active)
IC50 [17]: > 100 µM (inactive)
IC50 [18]: 1.74 µM (active)
IC50 (Genome polyprotein): 29 µM (active)
AC50 [19]: 5.65 µM (active)
IC50 (Beta-galactosidase): > 66.6 µM (inactive)
AC50 [20]: 2.24 µM (active)
IC50 (Phospholipase A2): 58.1 µM (inactive)
IC50 (Cysteine protease ATG4B): 7.13 µM (active)
CC50 [21]: 27.4 µM (active)
CC50 (Vero): 15.3 µM (active)
IC50 [22]: > 122 µM (inactive)
IC50 [23]: > 122 µM (inactive)
IC50 [24]: 8.29 µM (active)

C=C(C)Cn1c2ccc(NC(=O)NCc3ccccc3)cc2c(=O)n1C
EC50 (Kallikrein-7): > 69.5 µM (inactive)

Cc1ccc(S(=O)(=O)Nc2cc(Sc3nc(C)cc(C)n3)c(O)c3ccccc23)cc1
CC50 [25]: 20.9 µM (active)

Fc1ccc(CSc2nnc(-c3ccc(Cl)cc3)o2)cc1
IC90 [26]: 2 µM (active)
IC90 [27]: 2 µM (active)

C[C@@H]1CN([C@@H](C)CO)C(=O)Cc2cc(NC(=O)C3CCCCC3)ccc2O[C@@H]1CN(C)Cc1ccc(Cl)c(Cl)c1
AC50 [28]: 37.8 µM (active)

Clc1ccc2c(Nc3ccc4c(c3)OCO4)ccnc2c1
IC50 [29]: 13.8 µM (inactive)
IC50 [30]: > 50 µM (inactive)
IC50 [31]: > 50 µM (inactive)
IC50 (Mu-type opioid receptor): > 50 µM (inactive)
